For experiment [1], the system named is Pioneer inbred ED85E and GR013D seedlings / leaf segments. In words: Sugar (maltose) seedling pre-treatment, leaf transformation (Table 27). Format: in vivo, maize.
Experiment [2] concerns Pioneer inbred ED85E seedlings / leaf segments. In words: Gibberellic acid inhibitor seedling pre-treatment, leaf transformation (Table 24). In kind it is in vivo, maize.
Experiment [3] relates to Japonica rice (Oryza sativa var Kitaake) seedlings. In words: Ancymidol pre-treatment during seed germination and seedling growth, rice. Format: in vivo.
The subject of experiment [4] is maize inbred seedlings with pre-integrated target site 45 / leaf segments. The experiment in a line: Seedling pre-treatment with ancymidol, Agrobacterium-mediated site-specific integration (Table 22). Format: in vivo. Particulars: 90AE medium (900 + 2 mg/l ancymidol); 30 seedlings; PHP90842:PHP93925 9:1; no untreated comparison.
In experiment [5] the test system is teff (Eragrostis tef) seedlings. The experiment in a line: Ancymidol pre-treatment during seed germination and seedling growth, teff. In kind it is in vivo.
The subject of experiment [6] is pearl millet (Pennisetum glaucum) seedlings. The experiment in a line: Ancymidol pre-treatment during seed germination and seedling growth, pearl millet. Format: in vivo.
In experiment [7] the test system is Pioneer inbred ED85E seedlings / leaf segments. In words: Cytokinin seedling pre-treatment, leaf transformation (Table 25). As to conditions: for # T0 plants / # culture response (2 wk) / # culture response (4 wk) / T-DNA score (0-5) / TXN %: 21 seedlings, PHP97334. In kind it is in vivo, maize.
In experiment [8] the test system is Pioneer inbred GR0112 seedlings / leaf segments. The experiment in a line: Fipexide seedling pre-treatment, leaf transformation (Table 26). In kind it is in vivo, maize. As to conditions: for # culture response (2 wk) / # culture response (4 wk) / T-DNA score (0-5): 42 seedlings, PHP96277; for increase of total somatic embryo (SE) number relative to the control treatment: within the first four weeks of culture, per 42 starting seedlings.

For experiment [9] the test system is unchanged. In words: Norflurazon (abscisic acid biosynthesis inhibitor) seedling pre-treatment, leaf transformation (Table 28). Format: in vivo, maize. As to conditions: for # culture response (2 wk): 2 weeks after infection.
Where [10] appears, read: 20 mg/l maltose in place of sucrose, 90AE medium, second replicate (inbred GR013D), 30 seedlings, PHP104215.
The mark [11] stands for this setting: 2 mg/l in 900 germination medium, 24 seedlings, PHP101093.
Setting [12] is: 4 mg/l in 900 germination medium, 24 seedlings, PHP101093.
Where [13] appears, read: 6 mg/l in 900 germination medium, 24 seedlings, PHP101093.
Setting [14] is: 900 medium plus 2 mg/l ancymidol.
Where [15] appears, read: 1 mg/l in 90AE medium (+ 2 mg/l ancymidol).
[16] abbreviates: 5 mg/l in 90AE medium (+ 2 mg/l ancymidol).
The mark [17] stands for this setting: 250 mg/l in 90AO medium (900 + 1 mg/l ancymidol), 30 seedlings, PHP97334.
Where [18] appears, read: 500 mg/l in 90AO medium (900 + 1 mg/l ancymidol), 30 seedlings, PHP97334.
The mark [19] stands for this setting: 4.75 mg/l in 90AE medium (+ 2 mg/l ancymidol).
Setting [20] is: 9.5 mg/l in 90AE medium (+ 2 mg/l ancymidol).
Where [21] appears, read: 19 mg/l in 90AE medium (+ 2 mg/l ancymidol).
Setting [22] is: 0.1 mg/l in 90AE medium (+ 2 mg/l ancymidol).
[23] abbreviates: 0.5 mg/l in 90AE medium (+ 2 mg/l ancymidol).
Where [24] appears, read: 3 mg/l in 90AE medium (+ 2 mg/l ancymidol).

Values joined by “and” are separate entries in the source; they are usually repeats but may differ in a detail not shown here. Equal entries are not always repeated.

For the molecule `OC[C@H]1O[C@H](O[C@H]2[C@H](O)[C@@H](O)C(O)O[C@@H]2CO)[C@H](O)[C@@H](O)[C@@H]1O` (mixture of isomers) [Maltose, maltose], in experiment [1] (20 mg/l maltose as the carbon source, inbred GR013D), the “improvement of T0 Txn % relative to seedlings grown on 20 mg/l sucrose” value is listed as 1.3 fold. For the same molecule, in experiment [1] (setting [10]), the “# T0 plants” value is listed as 25, the “# culture response (2 wk)” value came out at 650, the “# culture response (4 wk)” value came out at 562 and the “T-DNA score (0-5)” value is listed as 4. The TXN % in [1] (setting [10]) is 83%.

For `CC(C)(C)[C@@H](O)[C@@H](Cc1ccc(Cl)cc1)n1cncn1` (racemic) [PBZ, paclobutrazol], in experiment [2] (setting [11]), the “# T0 plants” value worked out at 60, the “# culture response (2 wk)” value amounted to 271, the “# culture response (4 wk)” value is reported as 224 and the “T-DNA score (0-5)” value turned out to be 3.5. Also, the TXN % in experiment [2] (setting [11]) came out at 250%. For the same molecule, in experiment [2] (setting [12]), the “# T0 plants” value turned out to be 40, the “# culture response (2 wk)” value came out at 212, the “# culture response (4 wk)” value is on record as 156 and the “T-DNA score (0-5)” value turned out to be 3.5. Besides, the TXN % in experiment [2] (setting [12]) is 167%. Also, in [2] (setting [13]), the “# T0 plants” value is recorded as 29, the “# culture response (2 wk)” value was 151, the “# culture response (4 wk)” value stood at 99 and the “T-DNA score (0-5)” value is given as 3.5. The TXN % in [2] (setting [13]) was 121%. The “trend in the T0 transformation data” value in experiment [2] (concentrations tested in Table 24 (paclobutrazol 2-6 mg/l, daminozide 50-150 mg/l)) was “no clear trend”. In addition, in experiment [2] (higher concentration ranges 10, 20, 50 mg/l, stated in present tense, no data), the “T0 transformation frequencies relative to the control treatment” value was “increase”.

In the case of `COc1ccc(C(O)(c2cncnc2)C2CC2)cc1` (stereo not drawn) [Ancymidol, ancymidol], the “seedling height after 14 days” value in [3] (setting [14]) is 1-2 cm. For the same molecule, the “number of transgenic T0 plantlets compared to the other two treatments (0 and 2 mg/l)” value in experiment [3] (900 plus 1 mg/l ancymidol) is listed as “highest”. In [4], the “Number of: Escapes” value is 3, the “Number of: Events regenerated” value worked out at 7, the “Number of: Leaf segments/pieces responded” value is reported as 127 and the “Number of: Putative events” value is recorded as 44. Further, in experiment [4], the “Number of: RMCE events” value came out at 1 and the “Number of: SSI events” value amounted to 3. For the same molecule, in experiment [5] (setting [14]), the “seedling height after 14 days” value is 1-2 cm. For the same molecule, the “number of transgenic T0 plantlets compared to the other two treatments (0 and 2 mg/l)” value in [5] (900 plus 1 mg/l ancymidol) is reported as “highest”. The “seedling height after 14 days” value in [6] (setting [14]) is reported as 1-2 cm. The “number of transgenic T0 plantlets compared to the other two treatments (0 and 2 mg/l)” value in [6] (900 plus 1 mg/l ancymidol) is “highest”.

`c1ccc(CNc2ncnc3nc[nH]c23)cc1` [BAP, 6-benylamino purine]: the “increase of T0 Txn % relative to the control seedling germination medium with no cytokinin” value in [7] (1 mg/l) is reported as 1.4 fold. In experiment [7] (setting [15]), the “# T0 plants” value amounted to 97, the “# culture response (2 wk)” value stood at 135, the “# culture response (4 wk)” value came to 151 and the “T-DNA score (0-5)” value is 4. Moreover, in [7] (setting [15]), the TXN % is 462%. For the same molecule, the “increase of T0 Txn % relative to the control seedling germination medium with no cytokinin” value in experiment [7] (5 mg/l) turned out to be 1.8 fold. In experiment [7] (setting [16]), the “# T0 plants” value worked out at 128, the “# culture response (2 wk)” value came out at 144, the “# culture response (4 wk)” value came out at 172 and the “T-DNA score (0-5)” value was found to be 4. For the same molecule, the TXN % in experiment [7] (setting [16]) turned out to be 610%.

`C[N+](C)(C)CCCl` [Chlormequat chloride, chlormequat chloride]: in experiment [2] (setting [17]), the “# T0 plants” value is reported as 145, the “# culture response (2 wk)” value was found to be 265, the “# culture response (4 wk)” value worked out at 318 and the “T-DNA score (0-5)” value was 4.5. Moreover, the TXN % in experiment [2] (setting [17]) came out at 483%. In experiment [2] (250 mg/l pretreatment of ED85E seedlings), the “improvement of T0 transformation frequency (Txn %) relative to the control” value is on record as 1.4 fold. Moreover, in [2] (setting [18]), the “# T0 plants” value is on record as 108, the “# culture response (2 wk)” value is recorded as 302, the “# culture response (4 wk)” value was determined as 339 and the “T-DNA score (0-5)” value turned out to be 4.5. Moreover, the TXN % in experiment [2] (setting [18]) is listed as 360%.

As to `CN(C)NC(=O)CCC(=O)O` [Daminozide, daminozide], in experiment [2] (in vivo), the “# T0 plants” value is 71 and 41 and 53; the “# culture response (2 wk)” value is 87 and 103 and 70; the “# culture response (4 wk)” value is 99 and 103 and 95; the “T0 transformation frequencies relative to the control treatment” value is given as “increase”. For the same molecule, in experiment [2] (in vivo), the “T-DNA score (0-5)” value is recorded as 4; the TXN % was 355% and 205% and 265%; the “trend in the T0 transformation data” value is reported as “no clear trend”.

For the molecule `O=C(COc1ccc(Cl)cc1)N1CCN(Cc2ccc3c(c2)OCO3)CC1` [Fipexide, fipexide], the “# culture response (2 wk)” value is recorded as 768 in experiment [8] (setting [19]), 681 in experiment [8] (setting [20]) and 636 in [8] (setting [21]). Moreover, the “# culture response (4 wk)” value in experiment [8] (setting [19]) stood at 829; in experiment [8] (setting [20]), 780; in experiment [8] (setting [21]) it was 733. Also, the “T-DNA score (0-5)” value turned out to be 4 in experiment [8] (setting [19]), 3.5 in [8] (setting [20]) and 3.5 in experiment [8] (setting [21]). Moreover, the “increase of total somatic embryo (SE) number relative to the control treatment” value in [8] (4.75 mg/l) is given as 1.4 fold; in experiment [8] (9.5 mg/l), 1.3 fold; in experiment [8] (19 mg/l), 1.2 fold.

On to `O=C(Nc1ccccc1)Nc1cnns1` [TDZ, thidiazuron], for which, in [7] (setting [22]), the “# T0 plants” value is given as 99, the “# culture response (2 wk)” value is given as 169, the “# culture response (4 wk)” value was determined as 121 and the “T-DNA score (0-5)” value came to 4. Further, in [7] (setting [22]), the TXN % came to 471%. In addition, in experiment [7] (setting [23]), the “# T0 plants” value was determined as 97, the “# culture response (2 wk)” value was 182, the “# culture response (4 wk)” value was 122 and the “T-DNA score (0-5)” value turned out to be 4. In experiment [7] (setting [23]), the TXN % was found to be 462%. For the same molecule, in [7] (0.1 and 0.5 mg/l), the “change over the control treatment” value is “no increase”. Also, the “somatic embryo response and transformation frequency (Txn %)” value in experiment [7] (higher concentration ranges, such as 1, 2, 5, or 10 mg/l, stated in present tense, no data) is reported as “increase”.

In the case of `CNc1cnn(-c2cccc(C(F)(F)F)c2)c(=O)c1Cl` [norflurazon], the “improvement of T0 Txn % relative to the control treatment” value in experiment [9] (0.1 mg/l norflurazon, inbred GR0112, within the first two weeks of culture after Agrobacterium infection) is on record as 1.1 fold. Also, the “T-DNA score (0-5)” value in [9] (norflurazon 0.1 mg/l in 90AE germination medium, inbred GR0112) was found to be 4; in experiment [9] (norflurazon 1 mg/l in 90AE germination medium, inbred GR0112), 1.5; in experiment [9] (norflurazon 3 mg/l in 90AE germination medium, inbred GR0112), 2. Moreover, the “# culture response (2 wk)” value stood at 350 in experiment [9] (norflurazon 0.1 mg/l, 22 seedlings); 19 in [9] (norflurazon 1 mg/l, 7 seedlings); 45 in experiment [9] (norflurazon 3 mg/l, 7 seedlings).

In the case of trans-zeatin, in [7] (1 mg/l), the “increase of T0 Txn % relative to the control seedling germination medium with no cytokinin” value was 1.2 fold. In addition, in [7] (setting [15]), the “# T0 plants” value is 102, the “# culture response (2 wk)” value worked out at 196, the “# culture response (4 wk)” value came out at 177 and the “T-DNA score (0-5)” value came to 4. Moreover, the TXN % in experiment [7] (setting [15]) turned out to be 486%. In experiment [7] (3 mg/l), the “increase of T0 Txn % relative to the control seedling germination medium with no cytokinin” value is 1.5 fold. Besides, in [7] (setting [24]), the “# T0 plants” value is recorded as 130, the “# culture response (2 wk)” value is listed as 192, the “# culture response (4 wk)” value is 222 and the “T-DNA score (0-5)” value is given as 4. Moreover, in [7] (setting [24]), the TXN % came out at 619%.

The values above are taken from US20250311689A1, “SEEDLING GERMINATION AND GROWTH CONDITIONS” (PIONEER HI-BRED INTERNATIONAL, INC., priority 2022, published 2025).
